Earlier results in patent US20100234288A1, “SUSTAINED RELEASE PHARMACEUTICAL COMPOSITION ON THE BASIS OF RELEASE SYSTEM COMPRISING AN ACID-SOLUBLE POLYMER AND A pH-DEPENDENT POLYMER” (PANACEA BIOTEC LTD, priority 2006, published 2010).

Q: Which results are given for `O=C1Cc2cc(CCN3CCN(c4nsc5ccccc45)CC3)c(Cl)cc2N1` [Ziprasidone, 5-[2-[4-(1,2-benzisothiazol-3-yl)-1-piperazinyl]ethyl]-6-chloro-1,3-dihydro-2H-indol-2-one]?
A: time to reach peak plasma concentrations (after oral administration): 6 to 8 h; effect of food on absorption (presence of food, gastrointestinal absorption): doubles the absorption
